Experiments:
rhinovirus A1B = experiment: Antiviral activity against Human rhinovirus 1B infected in human HeLa cells assessed as reduction in virus-induced cytopathic effect after 2 days by SRB staining based microscopic method; assay type: functional, organism-based; conditions: Rhinovirus A, 48 h
[1] = Cytotoxicity against human HeLa cells assessed as growth inhibition after 2 days by SRB assay; assay type: cell-based
[2] = Selectivity index, ratio of CC50 for human HeLa cells to IC50 for Human rhinovirus 1B infected in human HeLa cells; assay type: toxicity, cell-based; conditions: read-out: Ratio CC50/IC50
Coxsackievirus B3 = experiment: Antiviral activity against Coxsackievirus B3 infected in African green monkey Vero cells assessed as reduction in virus-induced cytopathic effect after 2 days by SRB staining based microscopic method; assay type: functional, organism-based; conditions: Enterovirus B, 48 h
[3] = Cytotoxicity against African green monkey Vero cells assessed as growth inhibition after 2 days by SRB assay; assay type: cell-based; conditions: chlorocebus sabaeus
[4] = Selectivity index, ratio of CC50 for African green monkey Vero cells to IC50 for Coxsackievirus B3 infected in African green monkey Vero cells; assay type: toxicity; conditions: read-out: Ratio CC50/IC50

Row | SMILES | IC50 (rhinovirus A1B) [µM] | CC50 at 48 h [1] [µM] | selectivity ratio [2] | IC50 (Coxsackievirus B3) [µM] | CC50 at 48 h [3] [µM] | selectivity ratio [4]
1 | COc1ccc(C[C@H]2COC(=O)[C@@H]2Cc2ccc(Oc3cc(C[C@H]4C(=O)OC[C@@H]4Cc4ccc(OC)c(OC)c4)cc(OC)c3O)c(OC)c2)cc1OC | 13 | > 50 | > 3.8 |  |  | 
2 | COc1cc(C[C@H]2COC(=O)[C@@H]2Cc2cc(OC)c(O)c(-c3cc(C[C@H]4C(=O)OC[C@@H]4Cc4ccc(OC)c(OC)c4)cc(OC)c3O)c2)ccc1O | 47.5 | > 50 | > 1.1 |  |  | 
3 | COc1cc(C[C@H]2C(=O)OC[C@@H]2Cc2cc(OC)c(O)c(-c3cc(C[C@H]4C(=O)OC[C@@H]4Cc4ccc(OC)c(OC)c4)cc(OC)c3O)c2)ccc1O | 45.7 | > 50 | > 1.1 |  |  | 
4 | COc1cc([C@@H](OC)[C@@H]2CO[C@H](c3ccc(O)c(OC)c3)[C@@H]2CO)ccc1O (relative stereo) |  |  |  | 15.4 | > 50 | > 3.2
5 | COc1cc(C[C@H]2COC(=O)[C@@H]2Cc2ccc(O)c(OC)c2)ccc1O [MATAIRESINOL] | 43.2 | > 50 | > 1.2 |  |  | 
6 | CCOC(=O)/C=C/[C@H](C[C@@H]1CCNC1=O)NC(=O)[C@@H](CC(=O)[C@@H](NC(=O)c1cc(C)on1)C(C)C)Cc1ccc(F)cc1 [RUPINTRIVIR] |  | > 50 |  | 6.6 | > 50 | > 7.6

Reference: ChEMBL document CHEMBL4330149, “Lignan Dimers from Forsythia viridissima Roots and Their Antiviral Effects” (J Nat Prod, 2019)
